Read-outs that look alike come from different tables or passages of the source.

For one test, the target named is T1, hLigI (Homo sapiens, UniProt P18858).
T1 construct: made in house
As to the kind of experiment: High-throughput fluorescence-based DNA joining (ligation) assay. Type of test: biochemical. Particulars: 100 μM; for inhibition at 100 µM: read-out: % of inhibition @ 100 μM (Helen's data) hLigI. The method in brief: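 Nicked DNA substrate (10 pmol) was incubated with 0.25 pmol hLigI, with or without 100 μmol/L test compound, in duplicate. Afterwards the DNA was denatured and renatured with a 20-fold excess of unmodified oligonucleotide. Ligation forms an AF488/BHQ1 hairpin, read as reduced fluorescence at 518 nm.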

The target in the next test is T2, human DNA ligase III (Homo sapiens, UniProt P49916).
T2 sequence (P49916 1-862 isoform P49916-4): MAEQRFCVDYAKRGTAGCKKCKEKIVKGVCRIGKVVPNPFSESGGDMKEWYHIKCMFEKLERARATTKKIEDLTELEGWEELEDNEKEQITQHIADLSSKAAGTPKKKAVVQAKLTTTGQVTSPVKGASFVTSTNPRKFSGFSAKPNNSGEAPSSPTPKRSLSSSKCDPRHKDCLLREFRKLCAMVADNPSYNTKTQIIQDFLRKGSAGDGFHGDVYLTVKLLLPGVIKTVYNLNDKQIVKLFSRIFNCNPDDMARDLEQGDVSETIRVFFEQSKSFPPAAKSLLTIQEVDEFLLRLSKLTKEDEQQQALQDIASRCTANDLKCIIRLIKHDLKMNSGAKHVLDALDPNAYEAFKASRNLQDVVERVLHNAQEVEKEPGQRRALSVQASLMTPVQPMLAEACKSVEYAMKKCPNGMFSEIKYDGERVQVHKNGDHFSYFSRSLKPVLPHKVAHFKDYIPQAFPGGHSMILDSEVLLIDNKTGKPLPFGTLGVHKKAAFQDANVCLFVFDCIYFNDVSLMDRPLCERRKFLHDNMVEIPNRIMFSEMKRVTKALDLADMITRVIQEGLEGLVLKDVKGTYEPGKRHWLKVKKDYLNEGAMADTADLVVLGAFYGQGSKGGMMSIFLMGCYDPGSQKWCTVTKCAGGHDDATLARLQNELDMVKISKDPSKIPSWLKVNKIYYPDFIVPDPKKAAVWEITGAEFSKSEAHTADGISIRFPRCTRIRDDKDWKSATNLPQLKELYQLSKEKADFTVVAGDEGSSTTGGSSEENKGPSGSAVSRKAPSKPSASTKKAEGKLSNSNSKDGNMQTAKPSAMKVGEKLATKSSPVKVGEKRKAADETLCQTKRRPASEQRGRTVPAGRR
Described as above. The test is classed as biochemical. Particulars: for inhibition at 100 µM: read-out: % of inhibition @ 100 μM (Helen's data) hLigIII. The method in brief: (§1)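 Ligation joins an AF488-labelled and a BHQ1-labelled oligonucleotide. After denaturation and renaturation with a 20-fold excess of unlabelled competitor strand, the product forms a quenched hairpin, so joining is read as loss of 518 nm fluorescence. Ligase III used a nicked duplex; ligase IV used two duplexes with short complementary single-strand ends.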

For the next test, the target named is human DNA ligase IV (Homo sapiens, UniProt P49917). Described as above. The test is classed as biochemical. The following applies: for inhibition at 100 µM: read-out: % of inhibition @ 100 μM (Helen's data) hLigIV. The method in brief: as §1
Test [1] concerns MCF10A cells. As to the kind of experiment: Screen for potentiation of DNA damaging agents (MMS, camptothecin, cis-platinum, 3 aminobenzamide, ionizing radiation). The test is classed as cell-based, human. The following applies: for MMS: Ratios of IC50 MCF10A: compound alone vs combination with MMS (100 μM). The source says: The 192 human DNA ligase inhibitors were screened in parallel for effects on proliferation and the ability to potentiate the effects of several DNA damaging agents using two cell human lines, a colon cancer line HCT116 and a normal breast epithelial cell line MCF10A using a Biomek FX Laboratory Automation Workstation as described (23). The DNA damaging agents used, methyl methanesulfonate (MMS), camptothecin, cis-platinum, 3 aminobenzamide and ionizing radiation, are representatives of classes of agents used to treat cancer. Briefly, HCT116 and MCF10A cells were plated in 96 well plates such that the cultures were about 80% confluent after 5 days incubation. Compounds were added to the cultures at either 15 μM or 50 μM 1 day after plating. After incubation for 3 days, cell lysed in a solution containing 1.2% Igepal CA-630 and SYBR green that stains DNA (1:1000, Molecular Probes, Eugene, Oreg.). Subsequently, fluorescence was measured per well. The studies with DNA damaging agents were performed as follows. […] Cultures were incubated for 3 days and then treated as above.

For test [2], the system named is MCF10A cells. The test is described as follows: MTT cell growth assay. The following applies: Homo sapiens, MCF-10A. Type of test: cell-based, human. As to the method: (§2) The activity of hits from the initial screen was further validated using the MTT assay. Briefly, MCF10A and HCT116 cells were seeded in 96 well plates at 300 and 1200 cells per well, respectively, and allowed to adhere overnight. The following day, serial dilutions of compounds in media were added to the cells in a final volume 200 μl. After incubation for 5 days, MTT reagent (3-(4,5-dimthylthiazol-2-yl)-2,5-diphenyltatrazolium) was added and incubation was continued for 4 h. Formazan crystals generated by reduction of the MTT reagent in mitochondria were solubilized with isopropanol prior to the measurement of absorbance at 560 nm wavelength in a plate reader.
To extend the results of the […] cell culture screening assay, a subset of compounds were tested in larger cultures. Different concentrations of Compounds 67 and 151 were added to asynchronous subconfluent populations of HCT116 and MCF10A cells. Asynchronous subconfluent populations of HCT116 and MCF10A cells were pre-treated with different concentrations of compound 64 prior to the addition of 3 aminobenzamide (2 mM) MMS (100 μM) or cis-platinum (1 μM). After incubation for 5 days, cell growth was measured by the MTT assay (16).
In general terms: Tetrazolium assays rely on reduction of a dye to a coloured formazan, in cell work by metabolically active cells.

Test [3] relates to HCT116 and MCF10A cells. As to the kind of experiment: Cell proliferation screen, result stated for one or both cell lines. The test is classed as cell-based. Particulars: Homo sapiens, read-out: IC50 of inhibition of proliferation.
Test [4] deals with HCT116 cells. The test is described as follows: Screen for potentiation of DNA damaging agents (MMS, camptothecin, cis-platinum, 3 aminobenzamide, ionizing radiation). Type of test: cell-based, human. An excerpt: (§3) The 192 human DNA ligase inhibitors were screened in parallel for effects on proliferation and the ability to potentiate the effects of several DNA damaging agents using two cell human lines, a colon cancer line HCT116 and a normal breast epithelial cell line MCF10A using a Biomek FX Laboratory Automation Workstation as described (23). The DNA damaging agents used, methyl methanesulfonate (MMS), camptothecin, cis-platinum, 3 aminobenzamide and ionizing radiation, are representatives of classes of agents used to treat cancer. Briefly, HCT116 and MCF10A cells were plated in 96 well plates such that the cultures were about 80% confluent after 5 days incubation. Compounds were added to the cultures at either 15 μM or 50 μM 1 day after plating. After incubation for 3 days, cell lysed in a solution containing 1.2% Igepal CA-630 and SYBR green that stains DNA (1:1000, Molecular Probes, Eugene, Oreg.). Subsequently, fluorescence was measured per well. The studies with DNA damaging agents were performed as follows. […] For ionizing radiation, cells were pre-incubated with the compounds at 50 μM for 1 hour prior to exposure to 2 gray of ionizing radiation. Cultures were incubated for 3 days and then treated as above.

For test [5], the system named is HCT116 and MCF10A cells. The test is described as follows: Screen for potentiation of DNA damaging agents, cell line not stated with the result. Type of test: cell-based, human. The following applies: 50 μM.
Excerpt: as §3

For test [6], the system named is HCT116 cells. As to the kind of experiment: MTT cell growth assay. The test is classed as cell-based, human. As to the method:
as §2
After incubation for 5 days, cell growth was measured by the MTT assay (16).

[7] abbreviates: cell growth, compound alone, read-out: IC50 (μM) MCF10A.
Where [8] appears, read: sections 'high concentrations (~50 μM)' and 'active in vitro that decreased cell growth', same figures given in μM elsewhere in Table 6, read-out: IC50 MCF10A (head without unit).

Chain of human DNA ligase IV (P49917 whole entry): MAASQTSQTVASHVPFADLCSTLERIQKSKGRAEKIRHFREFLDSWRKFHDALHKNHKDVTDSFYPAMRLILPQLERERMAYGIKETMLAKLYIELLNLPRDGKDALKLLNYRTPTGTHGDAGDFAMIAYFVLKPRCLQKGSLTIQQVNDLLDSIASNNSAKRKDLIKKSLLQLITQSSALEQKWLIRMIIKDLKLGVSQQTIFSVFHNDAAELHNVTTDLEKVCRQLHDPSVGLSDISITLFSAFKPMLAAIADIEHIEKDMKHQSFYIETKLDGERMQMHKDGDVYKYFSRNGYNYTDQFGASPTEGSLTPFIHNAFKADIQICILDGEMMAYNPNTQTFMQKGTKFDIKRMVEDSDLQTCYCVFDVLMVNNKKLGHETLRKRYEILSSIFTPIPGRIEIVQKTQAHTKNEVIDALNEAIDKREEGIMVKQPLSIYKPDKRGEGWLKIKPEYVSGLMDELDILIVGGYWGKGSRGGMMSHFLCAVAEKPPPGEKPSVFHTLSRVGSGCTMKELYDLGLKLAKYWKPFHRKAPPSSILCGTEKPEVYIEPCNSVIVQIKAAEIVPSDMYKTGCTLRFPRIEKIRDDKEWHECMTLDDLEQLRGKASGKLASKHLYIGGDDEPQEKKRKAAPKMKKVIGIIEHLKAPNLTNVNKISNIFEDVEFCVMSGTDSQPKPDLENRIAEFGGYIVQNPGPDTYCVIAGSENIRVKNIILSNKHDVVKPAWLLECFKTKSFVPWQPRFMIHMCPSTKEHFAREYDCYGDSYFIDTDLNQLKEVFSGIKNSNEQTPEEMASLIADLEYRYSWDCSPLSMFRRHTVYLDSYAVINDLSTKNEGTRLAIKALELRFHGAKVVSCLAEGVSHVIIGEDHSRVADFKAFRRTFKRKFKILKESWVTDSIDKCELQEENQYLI
Chain of human DNA ligase IV (Q13426 whole entry partner): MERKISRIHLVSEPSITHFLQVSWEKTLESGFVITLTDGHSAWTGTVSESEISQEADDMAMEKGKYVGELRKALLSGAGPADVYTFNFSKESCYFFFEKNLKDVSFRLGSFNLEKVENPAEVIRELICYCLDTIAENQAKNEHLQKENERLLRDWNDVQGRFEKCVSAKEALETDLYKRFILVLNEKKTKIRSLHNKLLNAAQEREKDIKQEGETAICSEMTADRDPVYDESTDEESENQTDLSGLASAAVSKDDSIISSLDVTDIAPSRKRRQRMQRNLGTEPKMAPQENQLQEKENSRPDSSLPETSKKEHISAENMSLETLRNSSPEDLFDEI
T1 sequence (P18858 whole entry): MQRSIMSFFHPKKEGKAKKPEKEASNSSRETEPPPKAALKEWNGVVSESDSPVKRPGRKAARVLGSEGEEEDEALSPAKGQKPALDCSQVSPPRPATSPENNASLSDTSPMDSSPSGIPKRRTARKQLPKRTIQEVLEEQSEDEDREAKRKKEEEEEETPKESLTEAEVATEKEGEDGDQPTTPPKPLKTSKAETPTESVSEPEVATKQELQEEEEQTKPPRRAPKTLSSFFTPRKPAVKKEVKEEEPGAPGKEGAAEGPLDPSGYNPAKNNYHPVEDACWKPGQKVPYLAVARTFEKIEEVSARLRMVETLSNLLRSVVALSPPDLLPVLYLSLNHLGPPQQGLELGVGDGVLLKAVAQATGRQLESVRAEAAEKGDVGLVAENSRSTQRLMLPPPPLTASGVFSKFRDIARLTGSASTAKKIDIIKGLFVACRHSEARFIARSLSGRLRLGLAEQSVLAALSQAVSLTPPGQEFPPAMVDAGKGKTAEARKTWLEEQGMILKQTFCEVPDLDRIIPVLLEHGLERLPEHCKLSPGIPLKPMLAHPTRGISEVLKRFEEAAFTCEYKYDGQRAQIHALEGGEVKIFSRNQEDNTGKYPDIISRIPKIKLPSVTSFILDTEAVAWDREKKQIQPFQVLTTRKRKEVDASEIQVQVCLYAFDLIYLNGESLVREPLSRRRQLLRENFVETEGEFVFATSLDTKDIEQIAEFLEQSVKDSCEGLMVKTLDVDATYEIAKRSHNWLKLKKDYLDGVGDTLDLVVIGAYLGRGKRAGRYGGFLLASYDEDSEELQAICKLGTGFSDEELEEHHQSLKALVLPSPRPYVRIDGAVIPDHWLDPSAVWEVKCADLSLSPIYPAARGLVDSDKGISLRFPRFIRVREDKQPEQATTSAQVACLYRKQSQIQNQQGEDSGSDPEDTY

On to `O=C(O)c1ccccc1Nc1ccc([N+](=O)[O-])c2nonc12` [Compound 16], for which the inhibition at 100 µM on hLigI, on human DNA ligase III and on human DNA ligase IV (100 μM) was less than 20% throughout. The “MMS: Ratios of IC50 MCF10A” value in the test with MCF10A cells [1] (1 = no sensitization) amounted to 1. The IC50 is 6 µM with MCF10A cells [2] (setting [7]); less than 20 µM with HCT116 and MCF10A cells [3].
For the compound `C=CCN1C(=O)/C(=N\NC(=O)c2ccccc2O)c2ccccc21` [Compound 78], the inhibition – broadly, how much of the control response was suppressed – at 100 µM was more than 20% on human DNA ligase III and less than 20% at human DNA ligase IV. The “MMS: Ratios of IC50 HCT116” value in the test with HCT116 cells [4] (compound alone vs combination with MMS (100 μM), 1 = no sensitization) is 1. Also, the “IC50 ratios of non- and 3-AB treated cells MCF10A” value in the test on MCF10A cells [1] (compound alone vs combination with 3-AB (2 mM), 1 = no sensitization) amounted to 1. In addition, in the test with MCF10A cells [1] (1 = no sensitization), the “MMS: Ratios of IC50 MCF10A” value was found to be 1.5. Moreover, in the test with HCT116 and MCF10A cells [5] (MMS 100 μM), the “enhancement of the cytostatic effect of MMS” value is reported as “enhance the cytostatic effect of MMS”. The IC50 in the test with HCT116 cells [6] (Homo sapiens, HCT-116, cell growth, compound alone, read-out: IC50 (μM) HCT116) is 10 µM; in the test with HCT116 cells [6] (Homo sapiens, HCT-116, sections 'high concentrations (~50 μM)' and 'active in vitro that decreased cell growth', same figures given in μM elsewhere in Table 6, read-out: IC50 HCT116 (head without unit)) it was 10 µM; in the test with MCF10A cells [2] (setting [7]) it was 7.5 µM; in the test with MCF10A cells [2] (setting [8]) it was 7.5 µM; in the test on HCT116 and MCF10A cells [3] it was less than 20 µM.
In the case of `CCc1ccc(NS(=O)(=O)c2ccc(Cl)s2)cc1` [Compound 105], the “% of inhibition @ 100 μM (Helen's data) hLigI” value at hLigI is on record as “NI (NI- no inhibition)”. Moreover, the “% of inhibition @ 100 μM (Helen's data) hLigIII” value on human DNA ligase III (100 μM) is on record as “NI (NI- no inhibition)”. In addition, the “% of inhibition @ 100 μM (Helen's data) hLigIV” value at human DNA ligase IV (100 μM) is “NI (NI- no inhibition)”. For the same compound, the “Radiosensitizers: IC50 ratios HCT116” value with HCT116 cells [4] (ionizing radiation) is 1.3. In addition, the “Radiosensitizers: IC50 ratios MCF10A” value in the test with MCF10A cells [1] (ionizing radiation) was determined as 1. Also, in the test on HCT116 and MCF10A cells [5] (2 gray of ionizing radiation), the radiosensitizer activity result is given as “act as radiosensitizers”. In addition, the IC50 in the test on HCT116 cells [6] (cell growth, compound alone, read-out: IC50 (μM) HCT116) was approximately 50 µM.
As for `O=C(Nc1nc2ccccc2s1)c1ccc(Cl)c([N+](=O)[O-])c1` [Compound 165], the inhibition at 100 µM was less than 20% at hLigI, less than 20% at human DNA ligase III and 37.2% on human DNA ligase IV (100 μM). The “% of inhibition @ 100 μM (Helen's data) hLigIV” value on human DNA ligase IV (100 μM) is on record as 37%. Besides, the “MMS: Ratios of IC50 MCF10A” value in the test with MCF10A cells [1] (1 = no sensitization) amounted to 1. Moreover, the IC50 was 3 µM with MCF10A cells [2] (setting [7]); 3 µM with MCF10A cells [2] (setting [8]); less than 20 µM in the test with HCT116 and MCF10A cells [3].
As for `Nn1cnnc1N/N=C/c1cc([N+](=O)[O-])c(Cl)cc1Cl` [Compound 195], the inhibition at 100 µM on hLigI was 26%; at human DNA ligase III it was 24%; at human DNA ligase IV (100 μM), less than 20%. Moreover, the “MMS: Ratios of IC50 MCF10A” value with MCF10A cells [1] (1 = no sensitization) was determined as 1.2. Besides, the IC50 in the test on MCF10A cells [2] (setting [7]) is 3 µM; in the test with MCF10A cells [2] (setting [8]), 3 µM; in the test on HCT116 and MCF10A cells [3], less than 20 µM.
